Laboratory results: US20210213001A1, “METHOD OF TREATING A SLEEP BREATHING DISORDER” (Monash University, priority 2018, published 2021)

Legend:
[1] = system: anaesthetised, hyperventilated Domperidone-treated lamb; experiment: Periodic breathing induced by transient hyperventilation in the anaesthetised Domperidone-treated lamb (model of elevated loop gain); type: in vivo; conditions: for effect on average value of loop gain across the epoch / effect on epoch duration / effect on number of cycles in epochs of periodic breathing following hyperventilation / number of cycles of ventilation and apnea in the epoch of periodic breathing / duration of the epoch of periodic breathing / average value of loop gain across the epoch of periodic breathing: 5 mg/kg i.v.; for effect on average value of loop gain across the epoch / effect on epoch duration / effect on number of cycles in epochs of periodic breathing following hyperventilation: before vs after drug, Retigabine lambs 1-3, Flupirtine lamb 4; for number of cycles of ventilation and apnea in the epoch of periodic breathing / duration of the epoch of periodic breathing / average value of loop gain across the epoch of periodic breathing: single lamb; for number of cycles of ventilation and apnea in the epoch of periodic breathing / duration of the epoch of periodic breathing: about 1 hour after drug; for number of cycles of ventilation and apnea in the epoch of periodic breathing: same lamb before drug: 30 (Retigabine lamb), 24 (Flupirtine lamb); for duration of the epoch of periodic breathing: same lamb before drug: 6 minutes (Retigabine lamb), 320 seconds (Flupirtine lamb); for average value of loop gain across the epoch of periodic breathing: duty ratio method, same lamb before drug: 1.71 (Retigabine lamb), 1.51 (Flupirtine lamb)
Source text: To determine the effects of the KCNQ channel openers Retigabine and Flupirtine on loop gain and periodic breathing in the anaesthetised, hyperventilated Domperidone-treated lamb.
This animal model provides a robust preparation to test the effects of candidate drugs for the treatment of disordered breathing associated with increased peripheral chemosensitivity and elevated loop gain.
Young lambs (Merino/Border-Leicester cross, 14-18 kg) were instrumented surgically and maintained through the experimental protocol according to the method described by Edwards et al. (2008). Briefly, a non-occlusive catheter was placed in the left jugular vein for the induction of anaesthesia using a loading dose of ketamine hydrochloride (5 mg/kg) followed by alpha-chloralose (80 mg/kg as a starting bolus, then as a continuous infusion at 20 mg/kg/hr. Supplemental doses of alpha-chloralose were administered as needed to maintain adequate anaesthesia. A glucose-saline solution was infused through the same catheter to maintain fluid levels (5% glucose in 0.9% saline at 4 ml/kg/hr). A tracheal tube was inserted and connected to a dual intermittent mechanical ventilator (IMV)/high frequency oscillatory ventilator (Humming2; BMO-20H) used in the IMV mode. Use of a 4-way Hans Rudolf valve enabled the lamb to be ventilated artificially or to breathe spontaneously from a circuit through which a flow of gas was maintained at 45 L/min, or from the room air. Measurements of respiratory flow, tidal volume and end-expired gases were made on the tracheal line. Respiratory flow was measured using a Hans Rudolph (3500A) pneumotachograph that was linear up to 35 l/min, in conjunction with a Gaeltec 8T-2 differential pressure transducer connected to a carrier amplifier (Hewlett Packard 8805B) and thence to an HP-8815A electronic integrator to determine tidal volume. Non-occlusive catheters were placed in the right jugular vein and a carotid artery for the intravenous administration of drugs, the sampling of venous and arterial blood gases and the monitoring of blood pressure. Arterial blood pressure was measured using a Micron MP-15 blood pressure transducer connected to a Hewlett-Packard 8805B carrier amplifier. A rectal probe was used to monitor body temperature, which was maintained within the range of 40.0±1.0° C. using an overhead radiant heater. Arterial oxygen saturation was measured continuously using a Nellcor pulse oximeter (Model N-200E) with the probe placed in the trans-mandibular position in such a way that the optical path included the soft tissues of the jaw but excluded the tongue.
Domperidone (0.5 mg/kg in 30 ml 0.1% lactic acid), Flupirtine (as Flupirtine maleate, 5 mg/kg in 30 ml distilled water) and Retigabine (5 mg/kg in 30 ml distilled water) were each administered over a period of 5 minutes via the jugular vein catheter.
Lambs breathed room air (atmospheric) throughout the experimental protocol. Domperidone was administered at the commencement of the experimental protocol. […] Epochs of periodic breathing were induced by switching the tracheal tube to the ventilator circuit and hyperventilating the lamb with air for at least 5 minutes to reduce end tidal CO2 to a level that produced apnea when the ventilator was switched off. […] Typically, an extended epoch of periodic breathing followed the post-hyperventilation apnea. Once the ventilation parameters for achieving a post-hyperventilation apnea as described above were established for a particular animal, the baseline ventilatory response to hyperventilation was determined by performing two standardised hyperventilation procedures 10-15 minutes apart. The test drug (Flupirtine or Retigabine) was then administered and, approximately 1 hour later, another two hyperventilation procedures were performed 10-15 minutes apart.
Minute ventilation was calculated breath-by-breath using the breath duration determined from the respiratory flow trace and the tidal volume signal from the integrator. […]

young lambs = conditions: cited from earlier work

O=c1[nH]c2ccccc2n1CCCN1CCC(n2c(=O)[nH]c3cc(Cl)ccc32)CC1 [Domperidone]
epochs of periodic breathing on hyperventilation ([1]; Domperidone 0.5 mg/kg alone, 30 minutes or more after administration): reliably elicited epochs of periodic breathing | typical duration of epochs of periodic breathing ([1]; Domperidone 0.5 mg/kg alone, before test drug): 2 to 5 min | duration of blocking effect (young lambs; 0.5 mg/kg dose to a lamb, previous research (Kressin et al. 1986)): at least three hours | effect on loop gain of the respiratory control system (young lambs; young lambs, Edwards et al. (2008)): increases

CCOC(=O)Nc1ccc(NCc2ccc(F)cc2)nc1N [Flupirtine]
effect on average value of loop gain across the epoch [1]: reduced | effect on epoch duration [1]: reduced | effect on number of cycles in epochs of periodic breathing following hyperventilation [1]: significantly reduced | number of cycles of ventilation and apnea in the epoch of periodic breathing [1]: 9 cycles | duration of the epoch of periodic breathing [1]: 130 s | average value of loop gain across the epoch of periodic breathing [1]: 1.16

CCOC(=O)Nc1ccc(NCc2ccc(F)cc2)cc1N [Retigabine]
effect on average value of loop gain across the epoch [1]: reduced | effect on epoch duration [1]: reduced | effect on number of cycles in epochs of periodic breathing following hyperventilation [1]: significantly reduced | number of cycles of ventilation and apnea in the epoch of periodic breathing [1]: 6 cycles | duration of the epoch of periodic breathing [1]: 115 s | average value of loop gain across the epoch of periodic breathing [1]: 1.24
